# According to patent US20200121677A1, “SUBSTITUTED 6,7-DIHYDROPYRAZOLO[1,5-a]PYRAZINES AS NEGATIVE ALLOSTERIC MODULATORS OF MGLUR2 RECEPTORS” (Janssen Pharmaceutica NV, priority 2014, published 2020):
# What was measured:
# Male Wiga Wistar rats = experiment: Reversal of LY-404039-induced decrease of palpebral opening in apomorphine-challenged rats; assay type: in vivo, rat; details: for ED50: Rattus norvegicus, rats, route PO (route cell empty for Co. 88 and 84), read-out: ED50 APO LY-404039 (Reversal of LY-404039-induced decrease of palpebral opening in apomorphine challenged rats)
# Method: 1) Reversal of LY-404039-Induced Decrease of Palpebral Opening in Apomorphine-Challenged Rats.
# Male Wiga Wistar rats (Crl:WI; Charles River Germany; 220±40 g) were housed under standard laboratory conditions (21±2° C.; 50-65% relative humidity; light-dark cycle set at 12 h; lights on at 6.00 h) and fasted overnight prior to the start of the experiments (tap water remained available ad libitum). During the test period, they were housed in individual cages. Palpebral opening was scored every 5 min over the first hour after injection of apomorphine (1.0 mg/kg, i.v.) in animals either pretreated or not pretreated with LY-404039 (2.5 mg/kg, s.c.) at 1 h prior to the apomorphine injection. The animals were also pretreated with test compound or solvent at a predefined interval before apomorphine challenge. The score system was: (5) exophthalmos, (4) wide open, (3) open for three-quarters, (2) half open, (1) open for one-quarter, (0) closed. The scores for palpebral opening were cumulated over the 60-min observation period.
# rats = experiment: Reversal of the effect of the mGluR2 PAM JNJ-42153605-induced inhibition of scopolamine-induced hyperlocomotion; assay type: in vivo, rat; details: rats, route PO, criterion total distance >1500 cm; for ED50: Rattus norvegicus, read-out: ED50 SCOP JNJ-42153605 (Reversal of the effect of JNJ 42153605 on scopolamine-induced hyperlocomotion)
# Method: 2) Reversal of the Effect of the mGluR2 PAM JNJ-42153605-Induced Inhibition of Scopolamine-Induced Hyperlocomotion
# Motor activity was measured in microprocessor-based motor activity arenas (closed gray PVC cylinders with a height of 39 cm and a diameter of 31 cm). Each arena was placed on an infrared LED (8×8 LEDs) lit box (white PVC squared box; 40×40 cm^2; height 12.5 cm. An infrared-sensitive tube camera and a white light source were mounted to the ceiling above the observation chamber to track the animal. The total distance traveled (cm) was recorded and analyzed using the Noldus Ethovision XT Video Tracking System (Version 7.0.418; Noldus, Wageningen, The Netherlands). The intensity of the light within the activity cages (measured in the centre at the level of the floor) ranged between 4 and 8 LUX.
# The rats were pretreated with test compound or vehicle at 60 min before the start of the activity recordings and placed into individual cages. The rats were challenged with JNJ-42153605 (3-(cyclopropylmethyl)-7-(4-phenylpiperidin-1-yl)-8-(trifluoromethyl)[1,2,4]triazolo[4,3-a]pyridine; WO2010/130424; Cid et al. J. Med. Chem. 2012, 55, 8770-8789) (20 mg/kg, i.v.) 30 min before the start of the activity recording combined with scopolamine (0.16 mg/kg, i.v.) just before the start of the activity measurements. Immediately after the injection of scopolamine, the rats were placed into the activity monitors and total distance traveled over the first 30 min was measured.
# For reversal of the inhibitory effect of JNJ-42153605 on the scopolamine-induced hyperlocomotion, the following all-or-none criteria were adopted: (1) reversal: total distance >1500 cm.
# human mGlu2 receptor = human mGlu2 receptor (Homo sapiens, UniProt Q14416); experiment: [35S]GTPγS binding assay, mGluR2 negative allosteric modulation (membranes from CHO cells transfected with human mGlu2 receptor, glutamate ~EC80 60 μM); details: for IC50: GTPγS - hmGluR2 anGT pIC50, membranes with human mGlu2 receptor; for IC50 / GTPγS - hmGluR2 anGT pIC50: glutamate ~EC80 (60 μM), pIC50 = -log IC50 (M); for Emax: read-out: GTPγS - hmGluR2 anGT Emax, relative maximal effect: maximal % inhibition relative to the control glutamate response; for GTPγS - hmGluR2 anGT pIC50: membranes with human mGlu2 receptor; for GTPγS - hmGluR2 anGT Emax: relative maximal effect: maximal % inhibition relative to the control glutamate response;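 for all read-outs here: membranes preincubated 30 min at 30 °C with compound plus glutamate, then [35S]GTPγS (0.1 nM) incorporation measured over another 30 min at 30 °C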
# Method: The [^35S]GTPγS binding assay is a functional membrane-based assay used to study G-protein coupled receptor (GPCR) function whereby incorporation of a non-hydrolysable form of GTP, [^35S]GTPγS (guanosine 5′-triphosphate, labelled with gamma-emitting ^35S), is measured. […] Here we describe the use of the [^35S]GTPγS binding assay using membranes from cells transfected with the human mGlu2 receptor and adapted from Schaffhauser et al. (Molecular Pharmacology, 2003, 4:798-810) for the detection of the negative allosteric modulation (NAM) properties of the compounds of this invention.
# CHO-cells were cultured to pre-confluence and stimulated with 5 mM butyrate for 24 h. Cells were then collected by scraping in PBS and cell suspension was centrifuged (10 min at 4000 RPM in benchtop centrifuge). Supernatant was discarded and pellet gently resuspended in 50 mM Tris-HCl, pH 7.4 by mixing with an Ultra Turrax homogenizer. The suspension was centrifuged at 12,400 RPM (Sorvall F14S-6x250Y) for 10 minutes and the supernatant discarded. The pellet was homogenized in 5 mM Tris-HCl, pH 7.4 using an Ultra Turrax homogenizer and centrifuged again (13,000 RPM, 20 min, 4° C.). The final pellet was resuspended in 50 mM Tris-HCl, pH 7.4 and stored at −80° C. in appropriate aliquots before use. Protein concentration was determined by the Bradford method (Bio-Rad, USA) with bovine serum albumin as standard.
# Measurement of mGluR2 negative allosteric modulatory activity of test compounds was performed as follows. Test compounds and glutamate were diluted in assay buffer containing 10 mM HEPES acid, 10 mM HEPES salt, pH 7.4, 100 mM NaCl, 3 mM MgCl2 and 10 μM GDP. Human mGlu2 receptor-containing membranes were thawed on ice and diluted in assay buffer supplemented with 18 μg/ml saponin. Membranes were pre-incubated with compound together with a predefined (˜EC80) concentration of glutamate (60 μM) for 30 min at 30° C. After addition of [^35S]GTPγS (f.c. 0.1 nM), assay mixtures were shaken briefly and further incubated to allow [^35S]GTPγS incorporation on activation (30 minutes, 30° C.). Final assay mixtures contained 7 μg of membrane protein in 10 mM HEPES acid, 10 mM HEPES salt, pH 7.4, 100 mM NaCl, 3 mM MgCl2, 10 μM GDP and 10 μg/ml saponin. Total reaction volume was 200 μl. Reactions were terminated by rapid filtration through Unifilter-96 GF/B plates (Perkin Elmer, Massachusetts, USA) using a 96-well filtermate universal harvester. Filters were washed 6 times with ice-cold 10 mM NaH2PO4/10 mM Na2HPO4, pH 7.4. Filters were then air-dried, and 30 μl of liquid scintillation cocktail (Microscint-O) was added to each well. Membrane-bound radioactivity was counted in a Topcount.
# Data were calculated as % of the control glutamate response, defined as the response that is generated upon addition of an EC80-equivalent concentration of glutamate.
# Wiga rats = experiment: Induction of mydriasis (pupil diameter, test 1 and test 2); assay type: in vivo, rat; details: route PO, pupil diameter >25 units, maximum over 1, 2 or 3 h post-administration
# Method: 3) Induction of Mydriasis
# The pupil diameter of Wiga rats was measured with a microscopic micrometer (1 unit=1/24 mm). Criteria for drug-induced effects: pupil diameter >25 units for mydriasis (in controls: 1.9%) 1 h post-administration of the test compound (test 1) or 1, 2 or 3 h post-administration of the test compound (test 2, wherein the maximum pupil diameter over the full 3 h period is reported).
# human mGlu2 receptor, sequence (Q14416 19-872): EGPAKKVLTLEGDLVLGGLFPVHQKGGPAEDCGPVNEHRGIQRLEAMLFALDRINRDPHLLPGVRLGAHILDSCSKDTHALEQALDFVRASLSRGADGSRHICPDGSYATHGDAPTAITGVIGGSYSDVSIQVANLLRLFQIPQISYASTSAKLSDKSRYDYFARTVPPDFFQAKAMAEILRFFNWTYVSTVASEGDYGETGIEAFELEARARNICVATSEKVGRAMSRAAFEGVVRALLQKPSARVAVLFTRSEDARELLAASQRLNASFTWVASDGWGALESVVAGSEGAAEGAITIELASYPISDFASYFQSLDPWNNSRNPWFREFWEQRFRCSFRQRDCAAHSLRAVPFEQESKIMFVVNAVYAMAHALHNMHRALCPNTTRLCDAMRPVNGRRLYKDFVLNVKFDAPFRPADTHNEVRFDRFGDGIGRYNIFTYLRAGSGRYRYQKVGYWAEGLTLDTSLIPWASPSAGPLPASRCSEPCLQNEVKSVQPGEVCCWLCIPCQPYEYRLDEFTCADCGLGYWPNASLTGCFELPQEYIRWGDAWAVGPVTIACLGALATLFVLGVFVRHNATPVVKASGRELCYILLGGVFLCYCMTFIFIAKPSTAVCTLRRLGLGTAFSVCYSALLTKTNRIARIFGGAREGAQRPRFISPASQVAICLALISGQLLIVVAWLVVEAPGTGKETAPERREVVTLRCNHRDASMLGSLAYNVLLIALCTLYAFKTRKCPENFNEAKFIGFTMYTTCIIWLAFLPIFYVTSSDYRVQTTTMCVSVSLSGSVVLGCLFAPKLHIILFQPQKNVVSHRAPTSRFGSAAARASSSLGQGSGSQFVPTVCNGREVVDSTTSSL
melting point,IC50 (human mGlu2 receptor),Emax (human mGlu2 receptor),GTPγS - hmGluR2 anGT pIC50 (human mGlu2 receptor),GTPγS - hmGluR2 anGT Emax (human mGlu2 receptor),Structure (SMILES),"Palpebral opening score, Occurrence score > 26 (%) (Male Wiga Wistar rats; control animals, scores cumulated over 60 min after apomorphine 1.0 mg/kg i.v., LY-404039 2.5 mg/kg s.c. 1 h before apomorphine)",ED50 (Male Wiga Wistar rats),ED50 (rats),ED50 SCOP JNJ-42153605 (Reversal of the effect of JNJ 42153605 on scopolamine-induced hyperlocomotion) (rats),ED50 MYD Test 2 (Induction of mydriasis) (Wiga rats)
–,–,–,–,–,"N[C@@]1(C(=O)O)CS(=O)(=O)[C@H]2[C@H](C(=O)O)[C@H]21 [LY-404039, reference compound]",3.2%,–,–,–,–
180 °C,6.17e-09 M,106%,–,–,C[C@H]1CN(c2ccc(Cl)cc2)C(=O)c2c(C(=O)Nc3cccnc3)cnn21 [compound 41],–,0.32 mg/kg,> 0.63 mg/kg,–,–
196.7 °C,2.24e-09 M,110%,–,–,C[C@H]1CN(c2ccc(C(F)(F)F)cc2)C(=O)c2c(C(=O)Nc3cncc(F)c3)cnn21 [compound 13],–,0.32 mg/kg,0.32 mg/kg,–,–
225 °C,2.95e-09 M,119%,–,–,C[C@H]1CN(c2ccc(C(F)(F)F)cc2)C(=O)c2c(C(=O)Nc3cnccn3)cnn21 [compound 100],–,0.32 mg/kg,0.2 mg/kg,–,–
–,–,–,9.08,107%,C[C@H]1CN(c2ccc(Cl)c(Cl)c2)C(=O)c2c(C(=O)Nc3cccnc3)cnn21 [compound 26],–,–,–,0.32 mg/kg,5 mg/kg
223 °C,2.75e-09 M,113%,–,–,C[C@H]1CN(c2ccc(C(F)(F)F)c(Cl)c2)C(=O)c2c(C(=O)Nc3ccccn3)cnn21 [compound 46],–,1.99 mg/kg,> 2.5 mg/kg,–,–
244.9 °C,8.51e-09 M,106%,–,–,Cc1cc(NC(=O)c2cnn3c2C(=O)N(c2ccc(C(F)(F)F)cn2)C[C@@H]3C)ccn1 [compound 88],–,> 2.5 mg/kg,–,–,–
197.8 °C,4.79e-09 M,114%,–,–,COc1cncc(NC(=O)c2cnn3c2C(=O)N(c2ccc(C(F)(F)F)cc2)C[C@@H]3C)c1 [compound 144],–,1.99 mg/kg,1.01 mg/kg,–,–
194.8 °C,2.14e-09 M,111%,–,–,COc1cncc(NC(=O)c2cnn3c2C(=O)N(c2ccc(C(F)(F)F)c(C)c2)C[C@@H]3C)c1 [compound 40],–,> 0.63 mg/kg,> 0.63 mg/kg,–,–
249.5 °C,2.45e-09 M,109%,–,–,Cc1ccncc1NC(=O)c1cnn2c1C(=O)N(c1ccc(C(F)(F)F)cc1)C[C@@H]2C [compound 14],–,0.13 mg/kg,0.13 mg/kg,–,–
–,–,–,9.09,108%,C[C@H]1CN(c2ccc(Cl)c(Cl)c2)C(=O)c2c(C(=O)Nc3cncc(F)c3)cnn21 [compound 27],–,–,–,0.32 mg/kg,>10 mg/kg
–,–,–,8.72,108%,C[C@H]1CN(c2ccc(C(F)(F)F)c(F)c2)C(=O)c2c(C(=O)Nc3cccnc3)cnn21 [compound 21],–,–,–,0.32 mg/kg,7.9 mg/kg
199.2 °C,1.07e-08 M,113%,–,–,C[C@H]1CN(c2ccc(C(F)(F)F)c(F)c2)C(=O)c2c(C(=O)Nc3ccccn3)cnn21 [compound 20],–,> 2.5 mg/kg,> 2.5 mg/kg,–,–
161.92 °C,1.45e-09 M,109%,–,–,Cc1cc(NC(=O)c2cnn3c2C(=O)N(c2ccc(C(F)(F)F)c(C)c2)C[C@@H]3C)cc(C)n1 [compound 111],–,–,0.32 mg/kg,–,–
229.17 °C,1.17e-09 M,108%,–,–,Cc1cncc(NC(=O)c2cnn3c2C(=O)N(c2ccc(C(F)(F)F)c(Cl)c2)C[C@@H]3C)c1C [compound 126],–,> 0.63 mg/kg,> 0.63 mg/kg,–,–
216.6 °C,3.72e-09 M,111%,–,–,COc1cc(N2C[C@H](C)n3ncc(C(=O)Nc4cncc(C)c4)c3C2=O)ccc1C(F)(F)F [compound 33],–,–,> 0.63 mg/kg,–,–
185.3 °C,4.68e-09 M,103%,–,–,C[C@H]1CN(c2ccc(C(F)(F)F)cc2)C(=O)c2c(C(=O)Nc3ccc(F)cc3)cnn21 [compound 7],–,–,> 2.5 mg/kg,–,–
202.8 °C,7.24e-10 M,108%,–,–,Cc1cncc(NC(=O)c2cnn3c2C(=O)N(c2ccc(C(F)(F)F)c(C)c2)C[C@@H]3C)c1 [compound 37],–,> 0.63 mg/kg,> 0.63 mg/kg,–,–
196.7 °C,7.41e-09 M,112%,–,–,"Cc1cc(NC(=O)c2cnn3c2C(=O)N(c2ccc(Cl)c(OC(F)F)c2)C[C@@H]3C)ccn1 [compound 84, (7S)-5-[4-chloro-3-(difluoromethoxy)phenyl]-7-methyl-N-(2-methyl-4-pyridyl)-4-oxo-6,7-dihydropyrazolo[1,5-a]pyrazine-3-carboxamide]",–,> 2.5 mg/kg,–,–,–
–,1.48e-09 M,107%,–,–,Cc1cc(NC(=O)c2cnn3c2C(=O)N(c2ccc(C(F)(F)F)c(Cl)c2)C[C@@H]3C)cc(C)n1 [compound 107],–,> 0.63 mg/kg,> 0.63 mg/kg,–,–
227.3 °C,3.98e-09 M,114%,–,–,Cc1cc(N2C[C@H](C)n3ncc(C(=O)Nc4ccccn4)c3C2=O)ccc1C(F)(F)F [compound 35],–,> 10 mg/kg,> 2.5 mg/kg,–,–
184.48 °C,8.13e-09 M,108%,–,–,C[C@H]1CN(c2ccc(C(F)(F)F)cc2)C(=O)c2c(C(=O)Nc3ccc(F)cn3)cnn21 [compound 104],–,–,> 0.63 mg/kg,–,–
160.2 °C,2.09e-09 M,116%,–,–,C[C@H]1CN(c2ccc(C(F)(F)F)cc2)C(=O)c2c(C(=O)Nc3ccncc3)cnn21 [compound 3],–,–,0.08 mg/kg,–,–
181.5 °C,2.63e-09 M,104%,–,–,C[C@H]1CN(c2ccc(C(F)(F)F)cc2)C(=O)c2c(C(=O)Nc3ccc(N)nc3)cnn21 [compound 19],–,–,0.79 mg/kg,–,–
189 °C,3.02e-09 M,117%,–,–,C[C@H]1CN(c2ccc(C(F)(F)F)cc2)C(=O)c2c(C(=O)Nc3ccncc3F)cnn21 [compound 4],–,–,1.01 mg/kg,–,–
258.4 °C,3.09e-09 M,112%,–,–,C[C@H]1CN(c2ccc(Cl)c(Cl)c2)C(=O)c2c(C(=O)Nc3ccccn3)cnn21 [compound 25],–,> 10 mg/kg,> 2.5 mg/kg,–,–
185.94 °C,4.07e-09 M,108%,–,–,COc1cncc(NC(=O)c2cnn3c2C(=O)N(c2ccc(C(F)(F)F)c(Cl)c2)C[C@@H]3C)c1C [compound 127],–,–,> 0.63 mg/kg,–,–
246.7 °C,9.33e-09 M,111%,–,–,C[C@H]1CN(c2ccc(C(F)(F)F)cc2)C(=O)c2c(C(=O)Nc3nccs3)cnn21 [compound 140],–,–,> 2.5 mg/kg,–,–
